According to ChEMBL document CHEMBL4507315 (2021):

What was measured:
[1] = molecular target: Ephrin type-A receptor 6 (Homo sapiens) (UniProt Q9UF33); settings: Compound concentration 100.0 nM
[2] = molecular target: Ribosomal protein S6 kinase alpha-2 (Homo sapiens) (UniProt Q15349); settings: Compound concentration 100.0 nM
[3] = molecular target: LIM domain kinase 1 (Homo sapiens) (UniProt P53667); settings: Compound concentration 100.0 nM
[4] = molecular target: Mitogen-activated protein kinase kinase kinase 20 (Homo sapiens, UniProt Q9NYL2); settings: Compound concentration 100.0 nM
[5] = molecular target: Tyrosine-protein kinase CSK (Homo sapiens) (UniProt P41240); settings: Compound concentration 100.0 nM
[6] = molecular target: Casein kinase I isoform alpha-like (Homo sapiens) (UniProt Q8N752); settings: Compound concentration 100.0 nM
[7] = molecular target: Serine/threonine-protein kinase ULK2 (Homo sapiens) (UniProt Q8IYT8); settings: Compound concentration 100.0 nM
[8] = tested on: Mast/stem cell growth factor receptor Kit (Homo sapiens), P10721 [A829P]; settings: Compound concentration 100.0 nM
[9] = molecular target: Transient receptor potential cation channel subfamily M member 6 (Homo sapiens) (UniProt Q9BX84); settings: Compound concentration 100.0 nM
[10] = tested on: Mast/stem cell growth factor receptor Kit (Homo sapiens), P10721 [V559D]; settings: Compound concentration 100.0 nM
[11] = molecular target: Ribosomal protein S6 kinase alpha-5 (Homo sapiens) (UniProt O75582); settings: Compound concentration 100.0 nM
[12] = molecular target: Myosin-IIIb (Homo sapiens) (UniProt Q8WXR4); settings: Compound concentration 100.0 nM
[13] = molecular target: Mitogen-activated protein kinase kinase kinase 15 (Homo sapiens) (UniProt Q6ZN16); settings: Compound concentration 100.0 nM
[14] = molecular target: Tyrosine-protein kinase JAK3 (Homo sapiens) (UniProt P52333); settings: Compound concentration 100.0 nM
[15] = tested on: Phosphatidylinositol 4,5-bisphosphate 3-kinase catalytic subunit alpha isoform (Homo sapiens), P42336 [E545K]; settings: Compound concentration 100.0 nM
[16] = molecular target: Casein kinase I isoform gamma-1 (Homo sapiens) (UniProt Q9HCP0); settings: Compound concentration 100.0 nM
[17] = molecular target: Insulin-like growth factor 1 receptor (Homo sapiens) (UniProt P08069); settings: Compound concentration 100.0 nM
[18] = molecular target: Serine/threonine-protein kinase ICK (Homo sapiens) (UniProt Q9UPZ9); settings: Compound concentration 100.0 nM
[19] = molecular target: Myosin light chain kinase 2, skeletal/cardiac muscle (Homo sapiens) (UniProt Q9H1R3); settings: Compound concentration 100.0 nM
[20] = molecular target: Non-receptor tyrosine-protein kinase TYK2 (Homo sapiens) (UniProt P29597); settings: Compound concentration 100.0 nM
[21] = molecular target: Calcium/calmodulin-dependent protein kinase kinase 1 (Homo sapiens) (UniProt Q8N5S9); settings: Compound concentration 100.0 nM
[22] = tested on: Tyrosine-protein kinase ABL1 (Homo sapiens), P00519 [F317L]; settings: Compound concentration 100.0 nM
[23] = molecular target: Focal adhesion kinase 1 (Homo sapiens) (UniProt Q05397); settings: Compound concentration 100.0 nM
[24] = molecular target: Alpha-2C adrenergic receptor (Homo sapiens) (UniProt P18825); settings: Compound concentration 10.0 uM
[25] = molecular target: Mitogen-activated protein kinase 13 (Homo sapiens) (UniProt O15264); settings: Compound concentration 100.0 nM
[26] = molecular target: Dual specificity mitogen-activated protein kinase kinase 7 (Homo sapiens) (UniProt O14733); settings: Compound concentration 100.0 nM
[27] = molecular target: Serine/threonine-protein kinase B-raf (Homo sapiens) (UniProt P15056); settings: Compound concentration 100.0 nM
[28] = molecular target: Calcium-dependent protein kinase 1 (Plasmodium falciparum) (UniProt P62344); settings: Compound concentration 100.0 nM
[29] = molecular target: Serine/threonine-protein kinase BRSK2 (Homo sapiens) (UniProt Q8IWQ3); settings: Compound concentration 100.0 nM
[30] = molecular target: cAMP-dependent protein kinase catalytic subunit PRKX (Homo sapiens) (UniProt P51817); settings: Compound concentration 100.0 nM
[31] = molecular target: TRAF2 and NCK-interacting protein kinase (Homo sapiens) (UniProt Q9UKE5); settings: Compound concentration 100.0 nM
[32] = molecular target: Aurora kinase A (Homo sapiens) (UniProt O14965); settings: Compound concentration 100.0 nM
[33] = molecular target: Cyclin-dependent kinase 18 (Homo sapiens) (UniProt Q07002); settings: Compound concentration 100.0 nM
[34] = molecular target: Serine/threonine-protein kinase 17B (Homo sapiens) (UniProt O94768); settings: Compound concentration 100.0 nM
[35] = molecular target: Mitogen-activated protein kinase 10 (Homo sapiens) (UniProt P53779); settings: Compound concentration 100.0 nM
[36] = molecular target: Beta-1 adrenergic receptor (Homo sapiens) (UniProt P08588); settings: Compound concentration 10.0 uM
[37] = tested on: Epidermal growth factor receptor (Homo sapiens), P00533 [L858R,T790M]; settings: Compound concentration 100.0 nM
[38] = molecular target: Protein kinase C iota type (Homo sapiens) (UniProt P41743); settings: Compound concentration 100.0 nM
[39] = molecular target: Serine/threonine-protein kinase DCLK1 (Homo sapiens) (UniProt O15075); settings: Compound concentration 100.0 nM
[40] = molecular target: Phosphorylase b kinase gamma catalytic chain, skeletal muscle/heart isoform (Homo sapiens) (UniProt Q16816); settings: Compound concentration 100.0 nM
[41] = molecular target: Serine/threonine-protein kinase PAK 1 (Homo sapiens) (UniProt Q13153); settings: Compound concentration 100.0 nM
[42] = tested on: eIF-2-alpha kinase GCN2 (Homo sapiens), Q9P2K8 [S808G]; settings: Compound concentration 100.0 nM
[43] = molecular target: Mitotic checkpoint serine/threonine-protein kinase BUB1 (Homo sapiens) (UniProt O43683); settings: Compound concentration 100.0 nM
[44] = molecular target: Casein kinase I isoform gamma-2 (Homo sapiens) (UniProt P78368); settings: Compound concentration 100.0 nM
[45] = molecular target: G protein-coupled receptor kinase 3 (Homo sapiens) (UniProt P35626); settings: Compound concentration 100.0 nM

Sequence of Serine/threonine-protein kinase ULK2 (Homo sapiens) (Q8IYT8 whole entry): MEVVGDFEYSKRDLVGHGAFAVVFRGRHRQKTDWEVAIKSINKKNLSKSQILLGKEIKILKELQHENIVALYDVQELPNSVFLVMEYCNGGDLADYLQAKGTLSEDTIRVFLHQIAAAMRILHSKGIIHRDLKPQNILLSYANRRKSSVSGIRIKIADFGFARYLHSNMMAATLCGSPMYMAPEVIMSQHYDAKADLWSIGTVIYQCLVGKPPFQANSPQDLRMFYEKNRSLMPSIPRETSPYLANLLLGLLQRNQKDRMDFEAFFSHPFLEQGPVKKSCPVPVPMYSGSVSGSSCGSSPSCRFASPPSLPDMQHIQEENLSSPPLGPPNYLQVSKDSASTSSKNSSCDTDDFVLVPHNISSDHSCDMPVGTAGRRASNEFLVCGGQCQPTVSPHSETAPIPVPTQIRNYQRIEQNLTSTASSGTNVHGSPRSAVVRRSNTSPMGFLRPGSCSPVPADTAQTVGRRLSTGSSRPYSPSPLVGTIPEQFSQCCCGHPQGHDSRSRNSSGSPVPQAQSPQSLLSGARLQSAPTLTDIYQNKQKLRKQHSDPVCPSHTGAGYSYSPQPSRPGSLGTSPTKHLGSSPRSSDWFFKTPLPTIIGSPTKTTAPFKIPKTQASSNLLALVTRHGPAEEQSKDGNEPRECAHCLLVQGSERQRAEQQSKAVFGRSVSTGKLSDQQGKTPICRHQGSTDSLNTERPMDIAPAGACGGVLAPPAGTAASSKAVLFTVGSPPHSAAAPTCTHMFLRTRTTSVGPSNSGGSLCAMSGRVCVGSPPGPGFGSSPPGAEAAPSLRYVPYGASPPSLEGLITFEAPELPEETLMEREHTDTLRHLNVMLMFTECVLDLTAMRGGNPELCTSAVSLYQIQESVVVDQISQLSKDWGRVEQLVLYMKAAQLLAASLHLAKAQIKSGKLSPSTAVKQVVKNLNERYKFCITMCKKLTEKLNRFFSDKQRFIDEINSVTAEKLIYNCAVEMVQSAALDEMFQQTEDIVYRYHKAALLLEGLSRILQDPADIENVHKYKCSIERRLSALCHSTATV
Sequence of Non-receptor tyrosine-protein kinase TYK2 (Homo sapiens) (P29597 whole entry): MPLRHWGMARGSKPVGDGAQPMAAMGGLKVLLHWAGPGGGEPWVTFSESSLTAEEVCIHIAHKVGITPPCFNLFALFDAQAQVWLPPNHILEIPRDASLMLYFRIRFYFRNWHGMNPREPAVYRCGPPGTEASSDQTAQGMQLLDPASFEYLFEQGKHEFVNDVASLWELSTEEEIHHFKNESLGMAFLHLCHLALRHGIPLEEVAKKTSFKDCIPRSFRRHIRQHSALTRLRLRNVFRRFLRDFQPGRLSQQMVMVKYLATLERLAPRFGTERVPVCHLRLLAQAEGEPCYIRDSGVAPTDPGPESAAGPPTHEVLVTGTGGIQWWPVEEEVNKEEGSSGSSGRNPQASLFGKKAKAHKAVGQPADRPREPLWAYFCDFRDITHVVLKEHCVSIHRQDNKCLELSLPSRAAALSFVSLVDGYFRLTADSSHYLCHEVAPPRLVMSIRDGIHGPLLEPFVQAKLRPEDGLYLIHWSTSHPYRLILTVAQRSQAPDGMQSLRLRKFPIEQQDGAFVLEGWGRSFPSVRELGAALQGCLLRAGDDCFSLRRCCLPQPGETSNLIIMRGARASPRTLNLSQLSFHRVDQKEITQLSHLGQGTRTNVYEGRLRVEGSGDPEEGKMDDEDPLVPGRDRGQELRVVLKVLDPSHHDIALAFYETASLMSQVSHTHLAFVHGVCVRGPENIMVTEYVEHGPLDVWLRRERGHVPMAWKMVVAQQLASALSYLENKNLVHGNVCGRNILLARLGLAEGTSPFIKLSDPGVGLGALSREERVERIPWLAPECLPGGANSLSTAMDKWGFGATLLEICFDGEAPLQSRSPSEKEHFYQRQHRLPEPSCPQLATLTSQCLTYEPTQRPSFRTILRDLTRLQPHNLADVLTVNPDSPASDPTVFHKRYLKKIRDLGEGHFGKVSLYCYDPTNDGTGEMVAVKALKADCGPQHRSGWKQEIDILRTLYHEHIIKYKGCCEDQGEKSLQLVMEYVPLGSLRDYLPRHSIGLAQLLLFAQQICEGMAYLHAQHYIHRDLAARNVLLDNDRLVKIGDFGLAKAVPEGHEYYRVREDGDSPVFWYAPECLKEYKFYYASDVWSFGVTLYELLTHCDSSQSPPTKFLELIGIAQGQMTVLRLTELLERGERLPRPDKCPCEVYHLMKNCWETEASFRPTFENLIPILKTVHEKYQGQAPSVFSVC
Sequence of Mitogen-activated protein kinase 13 (Homo sapiens) (O15264 whole entry): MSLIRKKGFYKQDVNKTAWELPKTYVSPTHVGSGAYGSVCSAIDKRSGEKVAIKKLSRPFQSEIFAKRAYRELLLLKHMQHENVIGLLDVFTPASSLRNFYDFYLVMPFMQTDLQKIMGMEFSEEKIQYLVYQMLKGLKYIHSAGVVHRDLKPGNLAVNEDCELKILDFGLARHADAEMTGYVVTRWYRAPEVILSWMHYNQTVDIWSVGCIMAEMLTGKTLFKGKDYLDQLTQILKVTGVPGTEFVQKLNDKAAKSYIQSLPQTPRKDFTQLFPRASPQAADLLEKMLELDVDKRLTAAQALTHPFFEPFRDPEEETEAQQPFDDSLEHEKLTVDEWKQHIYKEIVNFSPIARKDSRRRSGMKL
Sequence of Serine/threonine-protein kinase 17B (Homo sapiens) (O94768 whole entry): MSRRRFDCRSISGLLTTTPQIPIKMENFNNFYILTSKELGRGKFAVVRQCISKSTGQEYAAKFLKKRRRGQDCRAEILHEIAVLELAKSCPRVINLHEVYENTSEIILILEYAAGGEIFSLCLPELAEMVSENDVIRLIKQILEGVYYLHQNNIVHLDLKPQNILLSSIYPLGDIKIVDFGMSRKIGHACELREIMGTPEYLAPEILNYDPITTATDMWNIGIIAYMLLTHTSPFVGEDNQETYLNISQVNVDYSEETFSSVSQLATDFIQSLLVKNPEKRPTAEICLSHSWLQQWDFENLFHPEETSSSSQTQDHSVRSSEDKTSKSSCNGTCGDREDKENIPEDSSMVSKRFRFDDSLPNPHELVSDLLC
Sequence of Tyrosine-protein kinase JAK3 (Homo sapiens) (P52333 whole entry, canonical isoform): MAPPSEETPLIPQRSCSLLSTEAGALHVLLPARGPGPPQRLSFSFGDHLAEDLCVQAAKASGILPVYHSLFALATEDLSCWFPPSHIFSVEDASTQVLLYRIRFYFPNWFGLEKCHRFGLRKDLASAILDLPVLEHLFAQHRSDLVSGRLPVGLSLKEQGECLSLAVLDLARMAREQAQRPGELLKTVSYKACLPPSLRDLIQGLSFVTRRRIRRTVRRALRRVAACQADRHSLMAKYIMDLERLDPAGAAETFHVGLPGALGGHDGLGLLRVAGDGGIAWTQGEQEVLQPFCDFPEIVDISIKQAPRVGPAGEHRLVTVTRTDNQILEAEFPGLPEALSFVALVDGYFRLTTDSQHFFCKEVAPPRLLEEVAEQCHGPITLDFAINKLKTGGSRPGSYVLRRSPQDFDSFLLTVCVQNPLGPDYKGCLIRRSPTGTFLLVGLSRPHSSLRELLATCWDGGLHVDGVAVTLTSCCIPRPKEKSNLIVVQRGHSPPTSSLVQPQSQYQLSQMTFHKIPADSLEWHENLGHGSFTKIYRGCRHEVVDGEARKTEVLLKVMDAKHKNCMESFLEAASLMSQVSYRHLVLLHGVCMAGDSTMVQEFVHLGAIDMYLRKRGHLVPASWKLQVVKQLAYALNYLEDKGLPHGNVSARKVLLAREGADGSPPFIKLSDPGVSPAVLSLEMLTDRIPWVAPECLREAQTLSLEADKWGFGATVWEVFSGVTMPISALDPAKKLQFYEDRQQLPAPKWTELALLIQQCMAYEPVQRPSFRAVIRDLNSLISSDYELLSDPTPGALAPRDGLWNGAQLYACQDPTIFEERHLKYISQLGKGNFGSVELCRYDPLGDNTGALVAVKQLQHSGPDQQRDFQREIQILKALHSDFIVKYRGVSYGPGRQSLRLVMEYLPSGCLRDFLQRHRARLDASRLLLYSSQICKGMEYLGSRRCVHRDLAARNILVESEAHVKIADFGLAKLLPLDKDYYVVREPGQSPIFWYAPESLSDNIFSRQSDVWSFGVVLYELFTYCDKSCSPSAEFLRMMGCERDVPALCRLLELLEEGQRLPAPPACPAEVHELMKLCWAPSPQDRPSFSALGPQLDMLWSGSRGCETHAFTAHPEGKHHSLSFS
Sequence of Mast/stem cell growth factor receptor Kit (Homo sapiens), P10721 [A829P] (P10721 whole entry A829P): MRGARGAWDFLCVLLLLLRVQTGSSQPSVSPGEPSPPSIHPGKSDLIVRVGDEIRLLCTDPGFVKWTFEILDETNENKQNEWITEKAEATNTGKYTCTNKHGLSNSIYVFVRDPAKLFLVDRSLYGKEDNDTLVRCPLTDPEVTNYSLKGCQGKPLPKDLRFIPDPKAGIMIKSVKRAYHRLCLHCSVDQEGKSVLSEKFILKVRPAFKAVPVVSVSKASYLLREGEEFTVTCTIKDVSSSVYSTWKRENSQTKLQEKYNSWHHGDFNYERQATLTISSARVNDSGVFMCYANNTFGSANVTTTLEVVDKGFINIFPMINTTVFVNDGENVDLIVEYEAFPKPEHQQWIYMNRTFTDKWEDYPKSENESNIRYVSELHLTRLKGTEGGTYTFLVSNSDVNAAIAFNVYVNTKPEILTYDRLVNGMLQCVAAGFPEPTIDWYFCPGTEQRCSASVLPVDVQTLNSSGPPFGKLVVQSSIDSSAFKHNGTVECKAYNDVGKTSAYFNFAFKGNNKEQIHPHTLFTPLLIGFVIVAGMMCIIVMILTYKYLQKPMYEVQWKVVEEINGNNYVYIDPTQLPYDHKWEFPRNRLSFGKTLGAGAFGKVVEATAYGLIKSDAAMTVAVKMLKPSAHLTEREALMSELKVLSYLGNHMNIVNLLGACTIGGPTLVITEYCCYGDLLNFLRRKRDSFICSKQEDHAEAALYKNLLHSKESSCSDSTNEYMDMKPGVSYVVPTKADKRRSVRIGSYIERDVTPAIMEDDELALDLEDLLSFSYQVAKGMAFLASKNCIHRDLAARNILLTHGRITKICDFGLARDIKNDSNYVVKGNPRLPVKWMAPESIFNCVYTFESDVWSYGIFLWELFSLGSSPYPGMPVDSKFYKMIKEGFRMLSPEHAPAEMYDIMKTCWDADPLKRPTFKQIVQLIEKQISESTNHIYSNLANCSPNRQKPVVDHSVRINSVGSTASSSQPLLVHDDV

O=C(NCCCC1CCCCC1)c1ccc(CNC(=O)c2cnn(-c3ccccc3)c2C(F)(F)F)cc1 [SR-321]
inactive: residual activity [1] 88% | residual activity [2] 100% | residual activity [3] 100% | residual activity [4] 100% | residual activity [5] 100% | residual activity [6] 94% | residual activity [7] 100% | residual activity [8] 100% | residual activity [9] 94% | residual activity [10] 100% | residual activity [11] 82% | residual activity [12] 100% | residual activity [13] 84% | residual activity [14] 100% | residual activity [15] 68% | residual activity [16] 100% | residual activity [17] 100% | residual activity [18] 79% | residual activity [19] 100% | residual activity [20] 100% | residual activity [21] 100% | residual activity [22] 100% | residual activity [23] 100% | inhibition [24] 3.68% | residual activity [25] 100% | residual activity [26] 100% | residual activity [27] 100% | residual activity [28] 100% | residual activity [29] 100% | residual activity [30] 100% | residual activity [31] 100% | residual activity [32] 100% | residual activity [33] 100% | residual activity [34] 100% | residual activity [35] 100% | inhibition [36] 21.9% | residual activity [37] 95% | residual activity [38] 100% | residual activity [39] 100% | residual activity [40] 100% | residual activity [41] 92% | residual activity [42] 100% | residual activity [43] 100% | residual activity [44] 96% | residual activity [45] 100%

Nc1c(C(=O)NCc2ccc(C(=O)NCCCC3CCCCC3)cc2)cnn1-c1ccccc1 [SR-318]
active: residual activity [4] 42% | residual activity [10] 45% | residual activity [11] 23%
inactive: residual activity [1] 94% | residual activity [2] 100% | residual activity [3] 100% | residual activity [5] 100% | residual activity [6] 98% | residual activity [7] 100% | residual activity [8] 100% | residual activity [9] 100% | residual activity [12] 100% | residual activity [13] 100% | residual activity [14] 100% | residual activity [15] 91% | residual activity [16] 100% | residual activity [17] 98% | residual activity [18] 100% | residual activity [19] 100% | residual activity [20] 88% | residual activity [21] 100% | residual activity [22] 100% | residual activity [23] 99% | inhibition [24] 18.1% | residual activity [25] 100% | residual activity [26] 99% | residual activity [27] 90% | residual activity [28] 86% | residual activity [29] 79% | residual activity [30] 87% | residual activity [31] 100% | residual activity [32] 100% | residual activity [33] 100% | residual activity [34] 94% | residual activity [35] 100% | inhibition [36] 25.3% | residual activity [37] 96% | residual activity [38] 97% | residual activity [39] 100% | residual activity [40] 90% | residual activity [41] 100% | residual activity [42] 100% | residual activity [43] 86% | residual activity [44] 94% | residual activity [45] 100%
